Consider 3 molecules from ChEMBL document CHEMBL1134152, “Biological activity in human neutrophils of di-tripeptides, analogues of the chemotactic fMLP” (Bioorg Med Chem Lett, 2001).

Test [1] can be described thus: Chemotactic index (C.I.) which is the ratio: (migration toward test attractant minus migration toward the buffer)/(migration toward the buffer). The format is functional.
A short description of test [2]: Release of neutrophil granule enzymes was evaluated by determining lysozyme activity modified for microplate-based assays.

With `COC(=O)[C@H](Cc1ccccc1)NC(=O)[C@H](CC(=O)N[C@@H](CCSC)C(=O)N[C@@H](CC(C)C)C(=O)N[C@@H](Cc1ccccc1)C(=O)O)NC(=O)[C@H](CCSC)NC=O`, the Chemotactic index in test [1] came to 0.5. Further, in test [2], the Lysozyme release was found to be 65%.

With `COC(=O)[C@H](Cc1ccccc1)NC(=O)[C@H](CCCCNC(=O)N[C@@H](CCSC)C(=O)N[C@@H](CC(C)C)C(=O)N[C@@H](Cc1ccccc1)C(=O)O)NC(=O)[C@H](CCSC)NC=O`, the Chemotactic index in test [1] was found to be 0.7. Also, in test [2], the Lysozyme release is 70%.

For `COC(=O)[C@H](Cc1ccccc1)NC(=O)[C@H](CC(C)C)NC(=O)[C@H](CCSC)NC=O`, the Chemotactic index in test [1] was found to be 1. This molecule also yielded a Lysozyme release in test [2] of 60%.
